The results in this text go back to US10253002B2, “Compounds and methods of treating infections” (Neoculi Pty Ltd., priority 2013, dated 2019).

“And” between values parts separate entries of the source, which are not always exact repeats. Equal values may be shown once.

For the first assay, the system named is MRSA. Briefly: Broth microdilution MIC, Example 7 (NCL812 and analogues). Format: cell-based, Staphylococcus aureus. The note with it: MIC testing, two MRSA strains. As to the method: (§1) Minimum inhibitory concentrations (μg/ml) were determined using the broth microdilution method recommended by the Clinical and Laboratory Standards Institute (CLSI). MIC breakpoints were determined by visual assessment and then confirmed using an ELISA plate reader, measuring absorbance levels at 600 nm. Bacterial growth (turbidity) in the wells with antimicrobial was compared with the amount of growth (turbidity) in the growth-control well (containing no antimicrobial). All isolates were tested in duplicate, if there was a difference of greater than one two-fold dilution in the results, the test was repeated a third time. The purity of the isolates was closely monitored during testing by subculturing the prepared bacterial inoculum onto SBA (sheep blood agar). […] The MIC50, MIC20 and MIC range (minimum and maximum) were calculated for each of the bacterial groups.
(§2) MICs were determined against two MRSA strains, two VRE strains and one strain each of E. coli and Pseudomonas aeruginosa.
In general terms: In broth dilution the organism is exposed to a series of concentrations in liquid medium.
Regarding `CC(Nc1cnc(NC(C)c2ccc(Cl)cc2)cn1)c1ccc(Cl)cc1` (centres unmarked) [NCL186], the “activity against MRSA among analogues” value is on record as “greatest activity”.
Same read-out and setting: as for `Cl.Clc1ccc(/C=N/Nc2cc(N/N=C/c3ccc(Cl)cc3)ncn2)cc1` [NCL187], the entry is “greatest activity”.
As to `Cl.OC/C(=N\Nc1cc(N/N=C(\CO)c2ccc(Cl)cc2)ncn1)c1ccc(Cl)cc1` [NCL189], the “activity against MRSA among analogues” value was “greatest activity”.
Still for that read-out and setting: for `C/C(=N\NC(=N)N)c1ccc(Cl)cc1.Cl` [NCL191] the value was “greatest activity”; for `Cl.N=C(N)NN=C(C(=O)O)c1ccccc1` [NCL192], “greatest activity”.

The same assay, now with this note: isolate MRSA 1; 24 hours; 1st and 2nd replicate rows.
Regarding `O=C(N/N=C/c1ccc(Cl)cc1)N/N=C/c1ccc(Cl)cc1` [NCL001], the “MIC (μg/ml) at 24 hours, MRSA 1” value was greater than 128 µg/mL.
As for `O=C(N/N=C/c1ccccc1Cl)N/N=C/c1ccccc1Cl` [NCL002], the “MIC (μg/ml) at 24 hours, MRSA 1” value was greater than 128 µg/mL.
Turning to `O=C(N/N=C/c1ccc(F)cc1)N/N=C/c1ccc(F)cc1` [NCL003], the “MIC (μg/ml) at 24 hours, MRSA 1” value was greater than 128 µg/mL.
`O=C(N/N=C/c1cccc(F)c1)N/N=C/c1cccc(F)c1` [NCL004]: the “MIC (μg/ml) at 24 hours, MRSA 1” value is greater than 128 µg/mL.
Take `O=C(N/N=C/c1ccccc1F)N/N=C/c1ccccc1F` [NCL005]: the “MIC (μg/ml) at 24 hours, MRSA 1” value was greater than 128 µg/mL.
On the same count and under the same terms, as for `COc1ccc(/C=N/NC(=O)N/N=C/c2ccc(OC)cc2)cc1` [NCL006], the figure is greater than 128 µg/mL; as for `N#Cc1ccc(/C=N/NC(=O)N/N=C/c2ccc(C#N)cc2)cc1` [NCL007], greater than 128 µg/mL; as for `N#Cc1ccccc1/C=N/NC(=O)N/N=C/c1ccccc1C#N` [NCL008], greater than 128 µg/mL.
On to `N#Cc1cccc(/C=N/NC(=O)N/N=C/c2cccc(C#N)c2)c1` [NCL009], for which the “MIC (μg/ml) at 24 hours, MRSA 1” value was greater than 128 µg/mL.

The same assay, now with this note: isolate MRSA 2; 24 hours; 1st and 2nd replicate rows.
For the compound `O=C(N/N=C/c1ccc(Cl)cc1)N/N=C/c1ccc(Cl)cc1` [NCL001], the “MIC (μg/ml) at 24 hours, MRSA 2” value was greater than 128 µg/mL.
On the same count and under the same terms, as for `O=C(N/N=C/c1ccccc1Cl)N/N=C/c1ccccc1Cl` [NCL002], the figure is greater than 128 µg/mL.
As for `O=C(N/N=C/c1ccc(F)cc1)N/N=C/c1ccc(F)cc1` [NCL003], the “MIC (μg/ml) at 24 hours, MRSA 2” value was greater than 128 µg/mL.
Turning to `O=C(N/N=C/c1cccc(F)c1)N/N=C/c1cccc(F)c1` [NCL004], the “MIC (μg/ml) at 24 hours, MRSA 2” value is greater than 128 µg/mL.
The same measure, in the same setting: for `O=C(N/N=C/c1ccccc1F)N/N=C/c1ccccc1F` [NCL005] the value was greater than 128 µg/mL; for `COc1ccc(/C=N/NC(=O)N/N=C/c2ccc(OC)cc2)cc1` [NCL006], greater than 128 µg/mL; for `N#Cc1ccc(/C=N/NC(=O)N/N=C/c2ccc(C#N)cc2)cc1` [NCL007], greater than 128 µg/mL.
As to `N#Cc1ccccc1/C=N/NC(=O)N/N=C/c1ccccc1C#N` [NCL008], the “MIC (μg/ml) at 24 hours, MRSA 2” value is greater than 128 µg/mL.
On the same count and under the same terms, as for `N#Cc1cccc(/C=N/NC(=O)N/N=C/c2cccc(C#N)c2)c1` [NCL009], the figure is greater than 128 µg/mL.

A further assay relates to VRE. The description is as above. The note with it: MIC testing, two VRE strains. The format is cell-based, Enterococcus spp. As to the method: as §1, §2
For `C#Cc1cccc(C=NNC(=N)NN=Cc2cccc(C#C)c2)c1.Cl` [NCL126], the “activity against VRE among analogues” value was “greatest activity”.
Same read-out and setting: as for `Cl.N=C(NN=Cc1cccc(Br)c1)NN=Cc1cccc(Br)c1` [NCL131], the entry is “greatest activity”.
Consider `Cl.N=C(NN=Cc1csc2ccc(Cl)cc12)NN=Cc1csc2ccc(Cl)cc12` [NCL141], for which the “activity against VRE among analogues” value is listed as “greatest activity”.
On the same count and under the same terms, as for `Cl.N=C(N/N=C/c1ccc(Cl)nc1)N/N=C/c1ccc(Cl)nc1` [NCL175], the entry is “greatest activity”.
Same read-out and setting: as for `CC(Nc1cnc(NC(C)c2ccc(Cl)cc2)cn1)c1ccc(Cl)cc1` (centres unmarked) [NCL186], the entry is “greatest activity”; as for `Cl.Clc1ccc(/C=N/Nc2cc(N/N=C/c3ccc(Cl)cc3)ncn2)cc1` [NCL187], “greatest activity”; as for `Cl.OC/C(=N\Nc1cc(N/N=C(\CO)c2ccc(Cl)cc2)ncn1)c1ccc(Cl)cc1` [NCL189], “greatest activity”.
With `C/C(=N\NC(=N)N)c1ccc(Cl)cc1.Cl` [NCL191], the “activity against VRE among analogues” value is reported as “greatest activity”.
Same read-out and setting: for `Cl.N=C(N)NN=C(C(=O)O)c1ccccc1` [NCL192] the value was “greatest activity”.

Still in this assay, the particulars now being: isolate VRE 1; 24 hours; 1st and 2nd replicate rows.
Turning to `O=C(N/N=C/c1ccc(Cl)cc1)N/N=C/c1ccc(Cl)cc1` [NCL001], the “MIC (μg/ml) at 24 hours, VRE 1” value is greater than 128 µg/mL.
For the compound `O=C(N/N=C/c1ccccc1Cl)N/N=C/c1ccccc1Cl` [NCL002], the “MIC (μg/ml) at 24 hours, VRE 1” value is greater than 128 µg/mL.
Same read-out and setting: as for `O=C(N/N=C/c1ccc(F)cc1)N/N=C/c1ccc(F)cc1` [NCL003], the figure is greater than 128 µg/mL; as for `O=C(N/N=C/c1cccc(F)c1)N/N=C/c1cccc(F)c1` [NCL004], greater than 128 µg/mL; as for `O=C(N/N=C/c1ccccc1F)N/N=C/c1ccccc1F` [NCL005], greater than 128 µg/mL.
The same measure, in the same setting: for `COc1ccc(/C=N/NC(=O)N/N=C/c2ccc(OC)cc2)cc1` [NCL006] the value was greater than 128 µg/mL; for `N#Cc1ccc(/C=N/NC(=O)N/N=C/c2ccc(C#N)cc2)cc1` [NCL007], greater than 128 µg/mL.
Still for that read-out and setting: for `N#Cc1ccccc1/C=N/NC(=O)N/N=C/c1ccccc1C#N` [NCL008] the value was greater than 128 µg/mL.
Regarding `N#Cc1cccc(/C=N/NC(=O)N/N=C/c2cccc(C#N)c2)c1` [NCL009], the “MIC (μg/ml) at 24 hours, VRE 1” value is greater than 128 µg/mL.

The assay is the same for the next values; noted with them: isolate VRE 2; 24 hours; 1st and 2nd replicate rows.
As to `O=C(N/N=C/c1ccc(Cl)cc1)N/N=C/c1ccc(Cl)cc1` [NCL001], the “MIC (μg/ml) at 24 hours, VRE 2” value was greater than 128 µg/mL.
The same measure, in the same setting: as for `O=C(N/N=C/c1ccccc1Cl)N/N=C/c1ccccc1Cl` [NCL002], the figure is greater than 128 µg/mL; as for `O=C(N/N=C/c1ccc(F)cc1)N/N=C/c1ccc(F)cc1` [NCL003], greater than 128 µg/mL.
On to `O=C(N/N=C/c1cccc(F)c1)N/N=C/c1cccc(F)c1` [NCL004], for which the “MIC (μg/ml) at 24 hours, VRE 2” value was greater than 128 µg/mL.
On the same count and under the same terms, for `O=C(N/N=C/c1ccccc1F)N/N=C/c1ccccc1F` [NCL005] the value was greater than 128 µg/mL.
Take `COc1ccc(/C=N/NC(=O)N/N=C/c2ccc(OC)cc2)cc1` [NCL006]: the “MIC (μg/ml) at 24 hours, VRE 2” value was greater than 128 µg/mL.
For the compound `N#Cc1ccc(/C=N/NC(=O)N/N=C/c2ccc(C#N)cc2)cc1` [NCL007], the “MIC (μg/ml) at 24 hours, VRE 2” value is greater than 128 µg/mL.
For the compound `N#Cc1ccccc1/C=N/NC(=O)N/N=C/c1ccccc1C#N` [NCL008], the “MIC (μg/ml) at 24 hours, VRE 2” value is greater than 128 µg/mL.
On the same count and under the same terms, as for `N#Cc1cccc(/C=N/NC(=O)N/N=C/c2cccc(C#N)c2)c1` [NCL009], the figure is greater than 128 µg/mL.

The test system of a further assay is Escherichia coli. Described as above. The note with it: 24 hours; 1st and 2nd replicate rows. Format: cell-based.
For `O=C(N/N=C/c1ccc(Cl)cc1)N/N=C/c1ccc(Cl)cc1` [NCL001], the “MIC (μg/ml) at 24 hours, E. coli” value was >128 µg/mL and >126 µg/mL.
For the compound `O=C(N/N=C/c1ccccc1Cl)N/N=C/c1ccccc1Cl` [NCL002], the “MIC (μg/ml) at 24 hours, E. coli” value was greater than 128 µg/mL.
On the same count and under the same terms, as for `O=C(N/N=C/c1ccc(F)cc1)N/N=C/c1ccc(F)cc1` [NCL003], the figure is greater than 128 µg/mL.
Same read-out and setting: for `O=C(N/N=C/c1cccc(F)c1)N/N=C/c1cccc(F)c1` [NCL004] the value was greater than 128 µg/mL.
As for `O=C(N/N=C/c1ccccc1F)N/N=C/c1ccccc1F` [NCL005], the “MIC (μg/ml) at 24 hours, E. coli” value is greater than 128 µg/mL.
Same read-out and setting: for `COc1ccc(/C=N/NC(=O)N/N=C/c2ccc(OC)cc2)cc1` [NCL006] the value was greater than 128 µg/mL.
As to `N#Cc1ccc(/C=N/NC(=O)N/N=C/c2ccc(C#N)cc2)cc1` [NCL007], the “MIC (μg/ml) at 24 hours, E. coli” value was greater than 128 µg/mL.
Consider `N#Cc1ccccc1/C=N/NC(=O)N/N=C/c1ccccc1C#N` [NCL008], for which the “MIC (μg/ml) at 24 hours, E. coli” value was greater than 128 µg/mL.
In the case of `N#Cc1cccc(/C=N/NC(=O)N/N=C/c2cccc(C#N)c2)c1` [NCL009], the “MIC (μg/ml) at 24 hours, E. coli” value is greater than 128 µg/mL.

The subject of the next assay is Pseudomonas aeruginosa. The description is as above. Format: cell-based. The note with it: 24 hours; 1st and 2nd replicate rows.
For the compound `O=C(N/N=C/c1ccc(Cl)cc1)N/N=C/c1ccc(Cl)cc1` [NCL001], the “MIC (μg/ml) at 24 hours, P. aeruginosa” value was greater than 128 µg/mL.
On to `O=C(N/N=C/c1ccccc1Cl)N/N=C/c1ccccc1Cl` [NCL002], for which the “MIC (μg/ml) at 24 hours, P. aeruginosa” value is greater than 128 µg/mL.
For `O=C(N/N=C/c1ccc(F)cc1)N/N=C/c1ccc(F)cc1` [NCL003], the “MIC (μg/ml) at 24 hours, P. aeruginosa” value is greater than 128 µg/mL.
Take `O=C(N/N=C/c1cccc(F)c1)N/N=C/c1cccc(F)c1` [NCL004]: the “MIC (μg/ml) at 24 hours, P. aeruginosa” value is greater than 128 µg/mL.
As for `O=C(N/N=C/c1ccccc1F)N/N=C/c1ccccc1F` [NCL005], the “MIC (μg/ml) at 24 hours, P. aeruginosa” value was greater than 128 µg/mL.
Consider `COc1ccc(/C=N/NC(=O)N/N=C/c2ccc(OC)cc2)cc1` [NCL006], for which the “MIC (μg/ml) at 24 hours, P. aeruginosa” value was greater than 128 µg/mL.
As for `N#Cc1ccc(/C=N/NC(=O)N/N=C/c2ccc(C#N)cc2)cc1` [NCL007], the “MIC (μg/ml) at 24 hours, P. aeruginosa” value is greater than 128 µg/mL.
Turning to `N#Cc1ccccc1/C=N/NC(=O)N/N=C/c1ccccc1C#N` [NCL008], the “MIC (μg/ml) at 24 hours, P. aeruginosa” value is greater than 128 µg/mL.
The same measure, in the same setting: as for `N#Cc1cccc(/C=N/NC(=O)N/N=C/c2cccc(C#N)c2)c1` [NCL009], the figure is greater than 128 µg/mL.
